Experiment [1] deals with primary human T-cells. The experiment in a line: IL2 secretion measurements (24 h, CD3-stimulated T-cells, PBS counter screen). The class given is cell-based. The note with it: for Emax IL2 (% activation): CD3 condition, normalised to DMSO (neutral) and 20 μM reference compound A1 = 100%; for EC50: Homo sapiens, T-cell, CD3-stimulated primary human T-cells, IL2 secretion, fitted sigmoidal curve, read-out: Tcell IL2 CD3 EC50. The method in brief:
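IL-2 secretion was measured by ProQuantum or ELISA after 24 h culture of expanded human T-cells with compound, on CD3-antibody-coated plates or PBS counter-screen plates. Dosing used 5–6 points from a 20 or 10 μM final top at 3.333-fold steps in 0.2% DMSO. EC50/Emax were scaled between DMSO and 20 μM reference A1.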

The subject of experiment [2] is primary human T-cells. Kind of experiment: Proliferation assay (5 days, CellTiter-Glo, CD3-stimulated T-cells). In kind it is cell-based. The note with it: for Emax proliferation (% activation): CD3 condition, normalised to DMSO (neutral) and 20 μM reference compound A1 = 100%; for EC50: Homo sapiens, T-cell, 120 h, CD3-stimulated primary human T-cells, 5 days, CellTiter-Glo, fitted sigmoidal curve, read-out: Tcell Proliferation CD3 EC50. The essentials:
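Proliferation read-out: ATP luminescence (CellTiter-Glo 2.0) at day 5 in expanded primary human T-cells on CD3 antibody-coated plates, with PBS-only plates as a counter screen. Compounds in 5–6 pt series (factor 3.333, top 20 or 10 μM final). Values are normalized to DMSO (neutral) and 20 μM reference A1 (100%), from sigmoidal fits.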
For orientation: ATP-based viability assays read luminescence as a measure of living cells.

`N#CC1(c2nnc(-c3ccc4c(c3)N(Cc3ccc(-c5ccc(OC(F)(F)F)cn5)cc3)C(=O)[C@@H](N)CS4(=O)=O)o2)CCC1` [Example 172, 1-[5-[(3R)-3-amino-1,1,4-trioxo-5-[[4-[5-(trifluoromethoxy)-2-pyridyl]phenyl]methyl]-2,3-dihydro-1λ^6,5-benzothiazepin-7-yl]-1,3,4-oxadiazol-2-yl]cyclobutanecarbonitrile]: in experiment [1], the “Emax IL2 (% activation)” value came to 120 % activation and the EC50 is 1090 nM. Further, in experiment [2], the “Emax proliferation (% activation)” value amounted to 101 % activation and the EC50 is 303 nM.

Consider `CC(C)(CC#N)c1nnc(-c2ccc3c(c2)N(Cc2ccc(-c4ccc(OC(F)(F)F)cn4)cc2)C(=O)[C@@H](N)CS3(=O)=O)o1` [Example 175, 3-[5-[(3R)-3-amino-1,1,4-trioxo-5-[[4-[5-(trifluoromethoxy)-2-pyridyl]phenyl]methyl]-2,3-dihydro-1λ^6,5-benzothiazepin-7-yl]-1,3,4-oxadiazol-2-yl]-3-methyl-butanenitrile], for which, in experiment [1], the “Emax IL2 (% activation)” value worked out at 52 % activation and the EC50 was more than 10000 nM. Moreover, in experiment [2], the “Emax proliferation (% activation)” value worked out at 105 % activation and the EC50 came out at 121 nM.
